Earlier results on one compound are cited in patent US8435497B2, “Formoterol of and ciclesonide combination” (Takeda GmbH, priority 2003, dated 2013).

Structures are written as SMILES.

Assay in data set [1]: not given
The source holds these as a separate data set.

For data set [2] the following is noted: relative to budesonide.

Turning to `CC(C)C(=O)OCC(=O)[C@@]12O[C@H](C3CCCCC3)O[C@@H]1C[C@H]1[C@@H]3CCC4=CC(=O)C=C[C@]4(C)[C@H]3[C@@H](O)C[C@@]12C` [Ciclesonide, [11β,16α(R)]-16,17-[(Cyclohexylmethylen)bis(oxy)]-11-hydroxy-21-(2-methyl-1-oxopropoxy)pregna-1,4-dien-3,20-dion], the “metabolism by liver oxidases” value (liver oxidases) is on record as “very high”. In addition, where the note is “lungs”, the “concentration of the drug in the lungs” value was “high”. For the same compound, for the setting “oral administration”, the “absorption after oral administration” value was “only moderately absorbed”. Moreover, the plasma half-life result (plasma) is recorded as “low plasma half-life”. Further, the systemic activity entry in data set [1] (in vivo) is reported as “low systemic activity”. The “systemic activity compared with budesonide” value in data set [1] (relative to budesonide) is reported as “three times lower”. Further, the “anti-inflammatory activity compared with budesonide” value in data set [2] was “higher”.
